This is an account of results in US20160067211A1, “PHARMACEUTICAL COMPOSITION” (Eberhard Karls Universitaet Tuebingen Medizinische Fakultaet, priority 2013, published 2016).

The target in one assay is MRP1 (Homo sapiens, UniProt P33527). As to conditions: cited from earlier work.
Assay [1] deals with pS6P, P70S6 kinase, pERK, caspase-3, Bcl-xl in SK-MEL-28 melanoma cells. The experiment in a line: Western blot of signalling proteins. The following applies: SK-MEL-28, 100 μM. Type of assay: cell-based, human. The method, then: FIG. 8: 6-PN and 8-PN decrease expression of pS6p via down regulation of pERK/pP90. Western blot analysis of SK-MEL-28 melanoma cells 1 hour, 2 hours, 4 hours, 12 hours, and 24 hours after treatment with 100 μM 6-PN or 8-PN. 6-PN and 8-PN induced down regulation of pS6p accompanied by a decrease of pERK and pP90, respectively. 6-PN and 8-PN induced time dependent increase of p70s6-kinase.
The following antibodies were used: Anti-Vinculin and Anti-Actin (1:5000, Sigma-Aldrich), Anti-Acetyl-Histon H3 (1:5000, Millipore, Billerica, USA), Anti-Caspase-3 (1:1000), Anti-AKT, Anti-pAKT, Anti-ERK, Anti-pERK, […], Anti-p70S6 Kinase, and Anti-pS6 protein (1:1000), all from Cell Signaling, Frankfurt, Germany), Anti-LC3 (1:5000, Sigma-Aldrich).
To further analyze the type of cell death induced by 6-PN and 8-PN, western blot analyses of SK-MEL-28 melanoma cells were performed 1, 2, 4, 12 and 24 hours after the treatment with 100 μM 6-PN and 8-PN. […] Upon PN treatment an inconsistent expression of oncogenic AKT and phospho-AKT (pAKT) was detected. […] Thus, there was an obvious discrepancy between the expression of pAKT and pS6P. Therefore it was first also looked for the expression of P70S6 kinase and its phosphorylated form. […] Therefore it was next asked whether the S6P could be phosphorylated by a different mechanism. In this respect, activated ERK can phosphorylate the p90 ribosomal S6 kinase (pP90). pP90 also phosphorylates the S6P (in addition to the P70S6 kinase). Since the pP70S6 kinase was absent in the used cells (SK-MEL-28 and BLM), it was hypothesized that the phosphorylation of the S6P was conducted via the pERK/pP90 pathway, independent from the P70S6 signalling. This hypothesis was supported by the parallel down-regulation of the bands for pP90 (Thr359/Ser363) and pS6P 12 hours after the treatment with 6-PN, and the reappearance of both bands after 24 hours (FIG. 8). […] The western blot experiments were repeated with BLM cells under the same treatment conditions and yielded similar results (not shown).
A general note: A western blot detects proteins with antibodies after separation by electrophoresis.

The subject of assay [2] is prostate cancer cell line DU145. As to conditions: DU145 in vitro; cited from earlier work.
In assay [3] the test system is human HDAC enzymes from nuclear extract of HeLa cells. The experiment in a line: HDAC inhibitor screening assay (HeLa nuclear extract). In kind it is biochemical. As to conditions: 6-PN 5 μM, 8-PN 10 μM. The method, then: FIG. 2: In silico docking analysis with 6-PN and 8-PN illustrates the inhibitory potential on human-derived HDACs of class I and II. (A) Results of the in silico docking analysis of 6-PN and 8-PN with crystal structures of HDAC2 (class I) and HDAC4 (class II). […] Both molecules are predicted to interact with the zinc ion as well as other residues of the catalytic center. Docking analyses of 6-PN and 8-PN in the individual HDAC binding pockets were performed using GOLD (version 4.1.2) and MOE (version 2009.10). (B) Overall HDAC inhibition in cellular extracts of the human cell line HeLa by increasing concentrations of 6-PN and 8-PN (5 μM, 10 μM, 20 μM, 50 μM and 100 μM). As reference inhibitor 100 μM SAHA was used. Every concentration was tested three times in triplicates. Shown are the mean±SD. (C) Specific fluometric profiling assay using recombinant human HDACs of classes I, II and IV. Specific inhibition values were generated for the treatment with 100 μM 6-PN and 8-PN. TSA was used as reference inhibitor (HDAC1, 2, 3, 6, 10, 11: 10 nM; HDAC4, 8, 9: 1 μM; HDAC5, 7:10 μM). The inhibition vales for every HDAC were yielded by one experiment performed in duplicates Shown are the mean±S.A. […]

The test system of another assay is HT-29 colon cancer cells. The experiment in a line: MUH proliferation assay, HT-29. In kind it is cell-based. As to conditions: rising concentrations 0.1 μM to 100 μM, 48 hours. The method, then: FIG. 6: 6-PN and 8-PN inhibit the growth of MCF-7 and HT-29. (A, B) MUH proliferation assay of HT-29 colon cancer cells and MCF-7 breast cancel cells treated with increasing concentrations of 6-PN and 8-PN (0.1 μM to 100 μM) for 48 hours. Shown are the mean±S.A.; the experiments were performed in quadruplicates.
The cells were seeded in triplicates in 96-well plates at a density of 2,500 cells per well in 50 μl medium (5×10^4 cells per milliliter). After 24 hours, the medium was replaced by medium containing 6-PN, 8-PN (dissolved in DMSO), TSA (dissolved in EtOH) or SAHA (dissolved in DMSO) at the concentrations to be tested with or without the addition of the necrosis inhibitor IM-54 at 5 μM (Calbiochem, Darmstadt, Germany). Cells treated with culture medium without or with DMSO served as controls. The assay was started following an incubation of 24 hours. The medium was discarded, each well was washed two times with PBS (without Ca^++ and Mg^++) and 100 μl of a solution containing […] of 4-methyl umbellipheryl heptanoate per ml PBS was added. Plates were incubated at 37° C. for 1 hour and measured in a Fluoroskan II (Lab Systems, Helsinki, Finland) with a […]. The intensity of fluorescence indicates the number of viable cells in the wells. […]

Chain of MRP1 (P33527 whole entry): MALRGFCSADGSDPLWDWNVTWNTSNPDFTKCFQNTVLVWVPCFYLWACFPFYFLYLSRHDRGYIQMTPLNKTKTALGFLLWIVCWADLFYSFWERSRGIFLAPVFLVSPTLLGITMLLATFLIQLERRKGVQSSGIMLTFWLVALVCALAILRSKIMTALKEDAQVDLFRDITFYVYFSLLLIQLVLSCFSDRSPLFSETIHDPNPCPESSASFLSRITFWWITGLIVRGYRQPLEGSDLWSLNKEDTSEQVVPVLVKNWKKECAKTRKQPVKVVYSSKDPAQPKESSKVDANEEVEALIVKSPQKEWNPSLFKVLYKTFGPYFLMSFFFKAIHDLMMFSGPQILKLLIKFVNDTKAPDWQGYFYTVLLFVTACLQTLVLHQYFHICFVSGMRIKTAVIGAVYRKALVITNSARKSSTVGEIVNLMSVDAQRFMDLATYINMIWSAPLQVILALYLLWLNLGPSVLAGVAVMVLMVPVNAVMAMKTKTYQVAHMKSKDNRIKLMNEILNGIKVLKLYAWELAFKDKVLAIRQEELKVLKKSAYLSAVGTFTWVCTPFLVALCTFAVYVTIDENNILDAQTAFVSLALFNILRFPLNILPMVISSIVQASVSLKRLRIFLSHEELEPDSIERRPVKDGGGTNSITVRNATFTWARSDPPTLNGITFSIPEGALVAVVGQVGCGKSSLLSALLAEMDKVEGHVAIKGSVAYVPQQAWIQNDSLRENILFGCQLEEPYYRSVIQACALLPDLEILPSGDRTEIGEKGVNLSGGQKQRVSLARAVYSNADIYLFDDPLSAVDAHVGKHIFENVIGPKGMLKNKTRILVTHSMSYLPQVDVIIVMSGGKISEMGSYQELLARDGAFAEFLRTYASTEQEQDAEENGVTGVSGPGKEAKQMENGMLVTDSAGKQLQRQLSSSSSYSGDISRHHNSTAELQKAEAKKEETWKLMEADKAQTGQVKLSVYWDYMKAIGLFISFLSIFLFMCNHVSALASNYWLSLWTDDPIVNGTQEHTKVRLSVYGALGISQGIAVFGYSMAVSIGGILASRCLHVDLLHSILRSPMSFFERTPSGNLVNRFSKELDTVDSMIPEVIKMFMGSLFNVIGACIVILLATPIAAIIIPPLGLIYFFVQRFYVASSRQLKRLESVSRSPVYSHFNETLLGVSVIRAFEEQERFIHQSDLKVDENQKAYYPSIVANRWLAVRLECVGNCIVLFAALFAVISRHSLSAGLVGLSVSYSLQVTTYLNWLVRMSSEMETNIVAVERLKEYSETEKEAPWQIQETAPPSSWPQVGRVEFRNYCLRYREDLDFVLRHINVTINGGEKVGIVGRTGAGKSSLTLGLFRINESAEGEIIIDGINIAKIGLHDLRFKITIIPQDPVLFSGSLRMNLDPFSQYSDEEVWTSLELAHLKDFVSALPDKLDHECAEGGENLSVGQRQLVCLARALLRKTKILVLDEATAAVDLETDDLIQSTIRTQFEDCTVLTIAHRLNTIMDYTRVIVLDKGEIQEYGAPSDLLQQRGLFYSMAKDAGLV

In the case of `CC(C)=CCc1c(O)cc(O)c2c1OC(c1ccc(O)cc1)CC2=O` (centres unmarked) [8-PN, 5,7-Dihydroxy-2-(4-hydroxy-phenyl)-8-(3-methyl-but-2-enyl)-chroman-4-one], the “inhibition of MRP1” value on MRP1 is listed as “inhibition”. Moreover, the “protein levels of caspase-3 and Bcl-xl” value in assay [1] (1-24 hours) is reported as “decreased protein levels”. The “phospho-S6 protein (pS6P) expression” value in assay [1] (after 4 hours, 12 hours, and 24 hours) is “strongly down regulated”. Also, the pERK expression entry in assay [1] (after 12 hours and 24 hours) was “strong down regulation”. Moreover, in assay [1] (time-dependent (1-24 hours)), the P70S6 kinase bands result is “down-regulated”. Moreover, the antiproliferative effects result in assay [2] is recorded as “antiproliferative effects”. In assay [3], the “HDAC inhibitory effect at low concentration” value is on record as “showed inhibitory effects”. Also, the cell proliferation entry in the assay with HT-29 colon cancer cells is listed as “severe reduction”.
